Assay results as given in ChEMBL document CHEMBL3431459, “Roche carnitine palmitoyltransferase modulator screening data (supplementary data associated with the publication CHEMBL2216752)”.
≈ marks a conversion by molar mass, not a printed value.

Key:
[1] = SUPPLEMENTARY: Lipophilicity (log D) Determination by high-throughput shake-flask; format: physicochemical; details: octanol/water
[2] = SUPPLEMENTARY: Lyophilisation Solubility Assay (LYSA); format: physicochemical; details: read-out: Kinetic_solubility
[3] = target: T1, Carnitine O-palmitoyltransferase 1, liver isoform (Homo sapiens, UniProt P50416); assay: (§1) SUPPLEMENTARY: Inhibition of Carnitine palmitoyltransferase 1, liver isoform
T1 sequence (P50416 whole entry): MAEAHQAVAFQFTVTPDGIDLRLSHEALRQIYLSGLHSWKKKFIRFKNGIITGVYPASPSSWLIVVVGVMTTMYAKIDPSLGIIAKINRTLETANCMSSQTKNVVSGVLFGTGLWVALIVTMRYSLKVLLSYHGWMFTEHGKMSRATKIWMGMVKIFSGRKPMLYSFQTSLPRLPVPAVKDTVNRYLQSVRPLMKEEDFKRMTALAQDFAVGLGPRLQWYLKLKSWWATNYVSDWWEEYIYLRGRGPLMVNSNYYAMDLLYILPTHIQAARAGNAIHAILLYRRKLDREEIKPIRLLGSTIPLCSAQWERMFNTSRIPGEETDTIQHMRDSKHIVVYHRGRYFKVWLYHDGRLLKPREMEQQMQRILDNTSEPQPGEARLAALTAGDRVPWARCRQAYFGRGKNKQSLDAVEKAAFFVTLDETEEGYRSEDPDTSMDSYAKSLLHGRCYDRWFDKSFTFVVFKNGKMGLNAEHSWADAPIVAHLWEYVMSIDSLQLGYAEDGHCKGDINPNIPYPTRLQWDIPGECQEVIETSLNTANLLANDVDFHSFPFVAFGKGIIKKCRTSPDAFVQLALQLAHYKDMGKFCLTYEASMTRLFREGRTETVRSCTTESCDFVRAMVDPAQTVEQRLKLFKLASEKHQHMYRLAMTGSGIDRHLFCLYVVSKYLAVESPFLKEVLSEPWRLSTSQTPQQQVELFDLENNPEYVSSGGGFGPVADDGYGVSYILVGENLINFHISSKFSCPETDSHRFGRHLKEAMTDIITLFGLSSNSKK

[4] = target: T2, Carnitine O-palmitoyltransferase 1, liver isoform (Rattus norvegicus, UniProt P32198); assay: as §1
T2 sequence (P32198 whole entry): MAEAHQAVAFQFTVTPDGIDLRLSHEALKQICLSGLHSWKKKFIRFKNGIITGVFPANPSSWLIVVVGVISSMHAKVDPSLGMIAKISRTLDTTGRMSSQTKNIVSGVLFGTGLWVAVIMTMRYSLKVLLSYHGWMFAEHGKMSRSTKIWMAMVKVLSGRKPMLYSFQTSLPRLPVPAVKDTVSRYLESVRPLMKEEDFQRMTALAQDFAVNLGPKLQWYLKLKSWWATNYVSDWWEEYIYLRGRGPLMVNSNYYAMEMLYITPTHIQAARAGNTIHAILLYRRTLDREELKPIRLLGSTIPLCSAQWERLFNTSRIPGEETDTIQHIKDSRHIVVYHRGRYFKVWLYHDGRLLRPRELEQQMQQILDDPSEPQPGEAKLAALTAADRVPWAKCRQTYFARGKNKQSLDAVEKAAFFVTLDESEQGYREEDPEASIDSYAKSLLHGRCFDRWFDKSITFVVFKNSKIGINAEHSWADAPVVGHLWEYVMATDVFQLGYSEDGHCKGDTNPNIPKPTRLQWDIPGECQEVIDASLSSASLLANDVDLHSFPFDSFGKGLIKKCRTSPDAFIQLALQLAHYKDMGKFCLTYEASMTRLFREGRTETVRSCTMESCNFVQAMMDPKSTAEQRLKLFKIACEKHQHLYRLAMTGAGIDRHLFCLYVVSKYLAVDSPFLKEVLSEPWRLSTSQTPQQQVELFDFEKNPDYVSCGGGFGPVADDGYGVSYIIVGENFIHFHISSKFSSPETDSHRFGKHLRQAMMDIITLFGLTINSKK

[5] = target: T3, Carnitine O-palmitoyltransferase 2, mitochondrial (Homo sapiens, UniProt P23786); assay: (§2) SUPPLEMENTARY: Inhibition of Carnitine palmitoyltransferase 2
T3 sequence (P23786 whole entry): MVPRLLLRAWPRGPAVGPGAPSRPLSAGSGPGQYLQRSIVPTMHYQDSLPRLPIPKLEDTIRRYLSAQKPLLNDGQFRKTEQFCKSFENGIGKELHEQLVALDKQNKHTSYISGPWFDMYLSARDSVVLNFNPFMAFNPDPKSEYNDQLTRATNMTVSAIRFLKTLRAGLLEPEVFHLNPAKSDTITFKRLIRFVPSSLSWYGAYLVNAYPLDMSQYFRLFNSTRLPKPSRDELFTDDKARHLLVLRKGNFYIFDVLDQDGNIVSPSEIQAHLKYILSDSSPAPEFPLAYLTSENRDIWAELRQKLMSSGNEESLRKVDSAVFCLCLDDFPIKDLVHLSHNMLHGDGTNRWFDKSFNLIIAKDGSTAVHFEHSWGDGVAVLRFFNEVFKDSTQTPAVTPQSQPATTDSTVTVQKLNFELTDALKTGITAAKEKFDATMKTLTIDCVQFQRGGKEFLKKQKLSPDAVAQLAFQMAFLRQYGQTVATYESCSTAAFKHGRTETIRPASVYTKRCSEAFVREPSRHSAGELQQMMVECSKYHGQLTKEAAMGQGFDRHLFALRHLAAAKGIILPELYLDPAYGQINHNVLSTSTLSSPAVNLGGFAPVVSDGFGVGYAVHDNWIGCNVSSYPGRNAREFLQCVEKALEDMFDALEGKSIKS

[6] = target: T4, Carnitine O-palmitoyltransferase 2, mitochondrial (Rattus norvegicus, UniProt P18886); assay: as §2
T4 sequence (P18886 whole entry): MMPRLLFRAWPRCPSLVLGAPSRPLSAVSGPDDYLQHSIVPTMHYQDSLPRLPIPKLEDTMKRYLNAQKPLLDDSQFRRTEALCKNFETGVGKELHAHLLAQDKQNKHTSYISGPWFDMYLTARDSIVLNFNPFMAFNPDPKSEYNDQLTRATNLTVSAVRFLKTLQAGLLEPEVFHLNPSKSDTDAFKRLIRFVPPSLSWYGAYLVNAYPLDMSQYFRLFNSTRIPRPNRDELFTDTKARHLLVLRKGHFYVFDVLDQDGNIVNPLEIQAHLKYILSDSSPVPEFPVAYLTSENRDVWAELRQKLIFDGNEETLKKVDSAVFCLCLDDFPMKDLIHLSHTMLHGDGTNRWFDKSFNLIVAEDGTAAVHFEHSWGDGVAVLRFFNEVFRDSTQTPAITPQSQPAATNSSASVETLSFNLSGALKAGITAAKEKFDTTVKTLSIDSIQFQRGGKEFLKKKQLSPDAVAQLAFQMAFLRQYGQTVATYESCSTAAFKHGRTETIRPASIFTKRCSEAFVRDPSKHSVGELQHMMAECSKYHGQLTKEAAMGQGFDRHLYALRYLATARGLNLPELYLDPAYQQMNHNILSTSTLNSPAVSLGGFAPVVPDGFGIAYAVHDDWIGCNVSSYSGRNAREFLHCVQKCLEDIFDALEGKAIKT

[7] = target: T5, Carnitine O-palmitoyltransferase 1, muscle isoform (Homo sapiens, UniProt Q92523); assay: SUPPLEMENTARY: Inhibition of Carnitine palmitoyltransferase 1, muscle isoform; set-up: species or system Muscle tissue
T5 sequence (Q92523 whole entry): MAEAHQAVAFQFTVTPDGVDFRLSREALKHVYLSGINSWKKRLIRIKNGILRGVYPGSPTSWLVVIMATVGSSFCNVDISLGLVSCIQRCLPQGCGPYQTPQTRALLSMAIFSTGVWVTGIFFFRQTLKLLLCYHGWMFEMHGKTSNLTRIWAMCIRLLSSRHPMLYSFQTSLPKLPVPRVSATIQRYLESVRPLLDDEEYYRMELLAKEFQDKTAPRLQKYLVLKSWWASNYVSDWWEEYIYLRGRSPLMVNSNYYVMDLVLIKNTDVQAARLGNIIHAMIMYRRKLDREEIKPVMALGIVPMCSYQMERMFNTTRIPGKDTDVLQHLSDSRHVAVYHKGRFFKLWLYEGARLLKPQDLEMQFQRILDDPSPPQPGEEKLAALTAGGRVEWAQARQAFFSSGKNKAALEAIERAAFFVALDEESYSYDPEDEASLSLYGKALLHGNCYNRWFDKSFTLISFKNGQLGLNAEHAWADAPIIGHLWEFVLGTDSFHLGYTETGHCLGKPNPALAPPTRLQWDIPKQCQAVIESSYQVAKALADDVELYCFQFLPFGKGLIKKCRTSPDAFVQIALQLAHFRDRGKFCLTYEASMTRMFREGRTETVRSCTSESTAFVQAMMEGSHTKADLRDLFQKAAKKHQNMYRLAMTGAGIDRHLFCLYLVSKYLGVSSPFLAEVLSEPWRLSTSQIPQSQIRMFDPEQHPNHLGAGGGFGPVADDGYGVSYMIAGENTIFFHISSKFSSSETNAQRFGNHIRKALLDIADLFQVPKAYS

[8] = SUPPLEMENTARY: PAMPA permeability assay; format: physicochemical; details: read-out: Permeability

In the case of CCNC(=O)Nc1cccc(-c2n[nH]c([C@H]3CCCCN3C(=O)COc3ccccc3)n2)c1, the logD [1] is reported as 2.84, the solubility kinetic [2] is reported as 69 µg/mL (≈ 154 µM) and the IC50 [3] is reported as 52.3 nM. The IC50 [4] was 811 nM, the IC50 [5] was 57500 nM and the IC50 [6] was 62900 nM. For the same compound, the IC50 [7] was 97000 nM and the Papp [8] was 2.23 ×10⁻⁶ cm/s.
In the case of COc1ccc(Cl)cc1Cc1c[nH]c2ccc(C(=O)Nc3ccc(CC(=O)O)cc3)cc12, the logD [1] is reported as 0.72, the solubility kinetic [2] is reported as 319 µg/mL (≈ 711 µM) and the IC50 [3] is reported as 180 nM. The IC50 [4] was 147 nM, the IC50 [5] was > 100000 nM and the IC50 [6] was > 100000 nM. For the same compound, the IC50 [7] was 491 nM and the Papp [8] was 0.43 ×10⁻⁶ cm/s.
For COc1ccc(Cl)cc1S(=O)(=O)c1c2cc(C(=O)Nc3ccc(C(=O)O)cc3)ccc2nn1C, the logD [1] was 2.41, the solubility kinetic [2] was 36 µg/mL (≈ 72 µM) and the IC50 [3] was 60.1 nM. For the same compound, the IC50 [4] was 56.3 nM, the IC50 [5] was > 100000 nM and the IC50 [6] was > 100000 nM. For the same compound, the IC50 [7] was > 100000 nM and the Papp [8] was 2.25 ×10⁻⁶ cm/s.
Nc1cncc(-c2nc([C@H]3CCCCN3C(=O)COc3ccccc3)no2)c1 gave a logD [1] of 2.39, a solubility kinetic [2] of 19 µg/mL (≈ 50.1 µM) and an IC50 [3] of 144 nM. For the same compound, the IC50 [4] was 923 nM, the IC50 [5] was 19000 nM and the IC50 [6] was > 100000 nM. For the same compound, the IC50 [7] was > 100000 nM and the Papp [8] was 5.07 ×10⁻⁶ cm/s.
For COc1ccc(Cl)cc1S(=O)(=O)c1cn(CCCO)c2ccc(C(=O)Nc3ccccc3)cc12, the logD [1] was 3.62, the solubility kinetic [2] was < 1 µg/mL and the IC50 [3] was 45 nM. The IC50 [4] was 10.1 nM, the IC50 [5] was > 100000 nM and the IC50 [6] was > 100000 nM. For the same compound, the IC50 [7] was > 100000 nM and the Papp [8] was 0.06 ×10⁻⁶ cm/s.
Compound O=C(COc1ccccc1)N1CCCC[C@@H]1c1nc(-c2cccc(F)c2)n[nH]1 has a logD [1] of 3.5, a solubility kinetic [2] of 23 µg/mL (≈ 60.5 µM) and an IC50 [3] of 82.7 nM. The IC50 [4] was 250 nM, the IC50 [5] was > 100000 nM and the IC50 [6] was > 100000 nM. For the same compound, the IC50 [7] was > 100000 nM and the Papp [8] was 1.45 ×10⁻⁶ cm/s.
In the case of O=C(COc1ccccc1)N1CCCC[C@@H]1c1nc(-c2ccc(S(=O)(=O)NCCO)cc2)no1, the logD [1] is reported as 2.29, the solubility kinetic [2] is reported as 65 µg/mL (≈ 134 µM) and the IC50 [3] is reported as 60.8 nM. It also gave an IC50 [4] of 406 nM, an IC50 [5] of 13400 nM and an IC50 [6] of 49300 nM. For the same compound, the IC50 [7] was > 100000 nM and the Papp [8] was 2.27 ×10⁻⁶ cm/s.
